Laboratory results from ChEMBL document CHEMBL3046511, “Controlling Efficacy of Strobilurin Derivatives against Wheat Powdery Mildew and Eyespot” (J Pestic Sci, 2002).
In brackets after ≈: the same amount, converted by molar mass.

What was measured:
[1] = system: Podosphaera fuliginea; experiment: Fungicidal activity against Podosphaera fuliginea in cucumber cotyledon assessed as control of powdery mildew measured as width inhibition at 7.8 ppm treated 24 hr inoculation at 22 +/- 2 degC measured after 10 days by vapour-phase activity test; assay type: functional
[2] = system: Blumeria graminis f. sp. tritici; experiment: Fungicidal activity against Blumeria graminis f. sp. tritici in 2 weeks old wheat seedlings assessed as control of powdery mildew at 31.3 ppm pretreated 24 hr before by foliar application at 22 +/- 2 degC under greenhouse and leaf area measured after 10 days of inoculation; assay type: functional
[3] = system: Blumeria graminis f. sp. tritici; experiment: Fungicidal activity against Blumeria graminis f. sp. tritici in 2 weeks old wheat seedlings assessed as control of powdery mildew at 0.125 ppm pretreated 24 hr before by foliar application at 22 +/- 2 degC under greenhouse and leaf area measured after 10 days of inoculation; assay type: functional
[4] = system: Oculimacula yallundae; experiment: Fungicidal activity against W-type Oculimacula yallundae assessed as inhibition of mycelial growth at 20 degC for 14 days in presence of 50 ppm flovone; assay type: functional, organism-based; details: for MIC: Oculimacula yallundae, 336 h
[5] = system: Blumeria graminis f. sp. tritici; experiment: Fungicidal activity against Blumeria graminis f. sp. tritici in 2 weeks old wheat seedlings assessed as control of powdery mildew at 0.06 ppm pretreated 24 hr before by foliar application at 22 +/- 2 degC under greenhouse and leaf area measured after 10 days of inoculation; assay type: functional
[6] = system: Blumeria graminis f. sp. tritici; experiment: Fungicidal activity against Blumeria graminis f. sp. tritici in 2 weeks old wheat seedlings assessed as control of powdery mildew at 0.5 ppm pretreated 24 hr before by foliar application at 22 +/- 2 degC under greenhouse and leaf area measured after 10 days of inoculation; assay type: functional
[7] = system: Blumeria graminis f. sp. tritici; experiment: Fungicidal activity against Blumeria graminis f. sp. tritici in 2 weeks old wheat seedlings assessed as control of powdery mildew at 2 ppm pretreated 24 hr before by foliar application at 22 +/- 2 degC under greenhouse and leaf area measured after 10 days of inoculation; assay type: functional
[8] = system: Oculimacula yallundae; experiment: Fungicidal activity against W-type Oculimacula yallundae assessed as inhibition of mycelial growth at 20 degC for 14 days; assay type: functional, organism-based; details: for MIC: Oculimacula yallundae, 336 h
[9] = system: Blumeria graminis f. sp. tritici; experiment: Fungicidal activity against Blumeria graminis f. sp. tritici in 2 weeks old wheat seedlings assessed as control of powdery mildew at 7.8 ppm pretreated 24 hr before by foliar application at 22 +/- 2 degC under greenhouse and leaf area measured after 10 days of inoculation; assay type: functional
[10] = system: Blumeria graminis f. sp. tritici; experiment: Fungicidal activity against Blumeria graminis f. sp. tritici in 2 weeks old wheat seedlings assessed as control of powdery mildew pretreated 24 hr before by foliar application at 22 +/- 2 degC under greenhouse and leaf area measured after 10 days of inoculation; assay type: functional, organism-based
[11] = system: Podosphaera fuliginea; experiment: Fungicidal activity against Podosphaera fuliginea in cucumber cotyledon assessed as control of powdery mildew measured as length inhibition at 7.8 ppm treated 24 hr inoculation at 22 +/- 2 degC measured after 10 days by vapour-phase activity test; assay type: functional
[12] = system: Blumeria graminis f. sp. tritici; experiment: Fungicidal activity against Blumeria graminis f. sp. tritici in 2 weeks old wheat seedlings assessed as control of powdery mildew at 125 ppm pretreated 24 hr before by foliar application at 22 +/- 2 degC under greenhouse and leaf area measured after 10 days of inoculation; assay type: functional
[13] = system: Podosphaera fuliginea; experiment: Fungicidal activity against Podosphaera fuliginea in cucumber cotyledon assessed as control of powdery mildew measured as length inhibition at 2 ppm treated 24 hr inoculation at 22 +/- 2 degC measured after 10 days by vapour-phase activity test; assay type: functional
[14] = system: Podosphaera fuliginea; experiment: Fungicidal activity against Podosphaera fuliginea in cucumber cotyledon assessed as control of powdery mildew measured as width inhibition at 2 ppm treated 24 hr inoculation at 22 +/- 2 degC measured after 10 days by vapour-phase activity test; assay type: functional

CNC(=O)/C(=N/OC)c1ccccc1Oc1ncc(Cl)cc1C(F)(F)F
INH [1]: 10.7 mm | Activity [2]: 100% | Activity [3]: 60% | EC50 [4]: 0.08 ppm | MIC [4]: 1 µg/mL | Activity [5]: 50% | Activity [6]: 89% | Activity [7]: 96% | EC50 [8]: 0.33 ppm | MIC [8]: < 125 µg/mL | Activity [9]: 100% | EC50 [10]: 0.05 ppm | INH [11]: 8.9 mm

CNC(=O)/C(=N/OC)c1ccccc1Oc1cc(C)ccc1C
Activity [2]: 100% | Activity [3]: 79% | EC50 [4]: 0.03 ppm | MIC [4]: 1 µg/mL | Activity [5]: 22% | Activity [6]: 94% | Activity [7]: 98% | EC50 [8]: 0.13 ppm | MIC [8]: < 125 µg/mL | Activity [9]: 100% | EC50 [10]: 0.07 ppm

CO/C=C(/C(=O)OC)c1ccccc1Oc1cc(Oc2ccccc2C#N)ncn1 [AZOXYSTROBIN]
Activity [12]: 95% | Activity [2]: 87% | Activity [3]: 5% | EC50 [4]: 0.41 ppm | MIC [4]: 25 µg/mL | Activity [6]: 35% | Activity [7]: 64% | EC50 [8]: 3.2 ppm | MIC [8]: < 125 µg/mL | Activity [9]: 85% | EC50 [10]: 1.39 ppm

OC(c1ccc(Cl)cc1)(c1cncnc1)c1ccccc1Cl (stereo unspecified) [FENARIMOL]
Activity [12]: 98% | Activity [2]: 98% | Activity [3]: 0% | Activity [6]: 50% | Activity [7]: 84% | EC50 [8]: 1.02 ppm | MIC [8]: 25 µg/mL (≈ 75.5 µM) | Activity [9]: 94% | EC50 [10]: 0.58 ppm

CO/N=C(/C(=O)OC)c1ccccc1COc1ccccc1C [KRESOXIM-METHYL]
Activity [12]: 100% | INH [1]: <20 mm | Activity [2]: 92% | Activity [3]: 14% | EC50 [4]: 0.11 ppm | MIC [4]: 5 µg/mL | INH [13]: 12.7 mm | Activity [6]: 39% | Activity [7]: 68% | INH [14]: 13.5 mm | EC50 [8]: 0.79 ppm | MIC [8]: < 125 µg/mL | Activity [9]: 86% | EC50 [10]: 0.95 ppm | INH [11]: <20 mm

CCCN(CCOc1c(Cl)cc(Cl)cc1Cl)C(=O)n1ccnc1 [PROCHLORAZ]
Activity [12]: 92% | Activity [2]: 70% | Activity [3]: 0% | Activity [6]: 23% | Activity [7]: 57% | EC50 [8]: 0.06 ppm | MIC [8]: 5 µg/mL (≈ 13.3 µM) | Activity [9]: 70% | EC50 [10]: 3.39 ppm

COC(=O)NC(=S)Nc1ccccc1NC(=S)NC(=O)OC [THIOPHANATE METHYL]
EC50 [8]: 1.18 ppm | MIC [8]: 25 µg/mL (≈ 73 µM)

CC(C)(C)C(=O)C(Oc1ccc(Cl)cc1)n1cncn1 (stereo unspecified) [TRIADIMEFON]
Activity [12]: 99% | INH [1]: <20 mm | Activity [2]: 94% | Activity [3]: 0% | Activity [6]: 30% | Activity [7]: 57% | EC50 [8]: 7.81 ppm | MIC [8]: < 125 µg/mL | Activity [9]: 82% | EC50 [10]: 1.6 ppm | INH [11]: <20 mm
